# pEC50: −log10 of the molar value.
# System: HIV-1 single-round infectious reporter virus
# Test: microbe, parasite or virus in culture
# Assay type: cell-based
# Details: for pEC50: Human immunodeficiency virus 1, HeLa-CD4/CCR5, 72 h, read-out: EC50 Group from Table 1
SMILES,pEC50,"inhibition at 10 µM (Human immunodeficiency virus 1, HeLa-CD4/CCR5, read-out: % Inhibition @ 10 uM) [%]"
COCCNC(=O)c1ccc(F)c2c(C(=O)C(=O)N3CCN(C(=O)c4ccccc4)CC3)c[nH]c12 [Example 152],> 6.00,–
CC(C)(C)OC(=O)NCCNC(=O)c1ccc(F)c2c(C(=O)C(=O)N3CCN(C(=O)c4ccccc4)CC3)c[nH]c12 [Example 153],> 6.00,–
NCCNC(=O)c1ccc(F)c2c(C(=O)C(=O)N3CCN(C(=O)c4ccccc4)CC3)c[nH]c12 [Example 154],> 6.00,–
C[C@@H]1CN(C(=O)c2ccccc2)CCN1C(=O)C(=O)c1c[nH]c2c(-c3noc(N)n3)ccc(F)c12 [Example 155],> 6.00,–
CN(C)c1nc(-c2ccc(F)c3c(C(=O)C(=O)N4CCN(C(=O)c5ccccc5)CC4)c[nH]c23)no1 [Example 156],> 6.00,–
CNc1nc(-c2ccc(F)c3c(C(=O)C(=O)N4CCN(C(=O)c5ccccc5)CC4)c[nH]c23)no1 [Example 157],> 6.00,–
CC(C)Nc1nc(-c2ccc(F)c3c(C(=O)C(=O)N4CCN(C(=O)c5ccccc5)CC4)c[nH]c23)no1 [Example 158],> 6.00,–
C[C@@H]1CN(C(=O)c2ccccc2)CCN1C(=O)C(=O)c1c[nH]c2c(-c3noc(NCCN4CCOCC4)n3)ccc(F)c12 [Example 159],> 6.00,–
CCC(C)Nc1nc(-c2ccc(F)c3c(C(=O)C(=O)N4CCN(C(=O)c5ccccc5)C[C@H]4C)c[nH]c23)no1 (some centres unmarked) [Example 160],> 6.00,–
C[C@@H]1CN(C(=O)c2ccccc2)CCN1C(=O)C(=O)c1c[nH]c2c(-c3noc(NC4CCC4)n3)ccc(F)c12 [Example 161],> 6.00,–
C[C@@H]1CN(C(=O)c2ccccc2)CCN1C(=O)C(=O)c1c[nH]c2c(-c3noc(NC4CCCC4)n3)ccc(F)c12 [Example 162],> 6.00,–
O=C(C(=O)N1CCN(C(=O)c2ccccc2)CC1)c1c[nH]c2c(C3=NCCN3)ccc(F)c12 [Example 163],> 6.00,–
O=C(C(=O)N1CCN(C(=O)c2ccccc2)CC1)c1c[nH]c2c(-c3nc4cnccc4[nH]3)ccc(F)c12 [Example 164],> 6.00,–
O=C(C(=O)N1CCN(C(=O)c2ccccc2)CC1)c1c[nH]c2c(-c3nc4ncccc4[nH]3)ccc(F)c12 [Example 165],> 6.00,–
N=C(Nc1cccnc1N)c1ccc(F)c2c(C(=O)C(=O)N3CCN(C(=O)c4ccccc4)CC3)c[nH]c12 [Example 166],> 6.00,–
C[C@@H]1CN(C(=O)c2ccccc2)CCN1C(=O)C(=O)c1c[nH]c2c(-c3nnn(C)n3)ccc(F)c12 [Example 175],–,> 98
C[C@@H]1CN(C(=O)c2ccccc2)CCN1C(=O)C(=O)c1c[nH]c2c(-c3noc(=O)[nH]3)ccc(F)c12 [Example 176],> 6.00,–
C[C@@H]1CN(C(=O)c2ccccc2)CCN1C(=O)C(=O)c1c[nH]c2c(C(=O)NCCN3CCOCC3)ccc(F)c12 [Example 177],> 6.00,–

SMILES,pEC50,"inhibition at 10 µM (Human immunodeficiency virus 1, HeLa-CD4/CCR5, read-out: % Inhibition @ 10 uM) [%]"
Cc1nc(-c2ccc(F)c3c(C(=O)C(=O)N4CCN(C(=O)c5ccccc5)C[C@H]4C)c[nH]c23)no1 [Example 178],> 6.00,–
C[C@@H]1CN(C(=O)c2ccccc2)CCN1C(=O)C(=O)c1c[nH]c2c(-c3noc(C4CC4)n3)ccc(F)c12 [Example 179],> 6.00,–
C[C@@H]1CN(C(=O)c2ccccc2)CCN1C(=O)C(=O)c1c[nH]c2c(-c3noc(C(F)(F)F)n3)ccc(F)c12 [Example 180],> 6.00,–
C[C@@H]1CN(C(=O)c2ccccc2)CCN1C(=O)C(=O)c1c[nH]c2c(-c3ncon3)ccc(F)c12 [Example 181],> 6.00,–
COC(=O)c1nc(-c2ccc(F)c3c(C(=O)C(=O)N4CCN(C(=O)c5ccccc5)C[C@H]4C)c[nH]c23)no1 [Example 182],> 6.00,–
N/C(=N\O)c1ccc(F)c2c(C(=O)C(=O)N3CCN(C(=O)c4ccccn4)CC3)c[nH]c12 [Example 183],> 6.00,–
NC(=O)c1ccc(F)c2c(C(=O)C(=O)N3CCN(C(=O)c4ccccn4)CC3)c[nH]c12 [Example 184],> 6.00,–
C[C@@H]1CN(C(=O)c2ccccn2)CCN1C(=O)C(=O)c1c[nH]c2c(-c3noc(C(Cl)(Cl)Cl)n3)ccc(F)c12 [Example 187],> 6.00,–
O=C(C(=O)N1CCN(C(=O)c2ccccn2)CC1)c1c[nH]c2c(-c3noc(C(Cl)(Cl)Cl)n3)ccc(F)c12 [Example 188],> 6.00,–
Nc1nc(-c2ccc(F)c3c(C(=O)C(=O)N4CCN(C(=O)c5ccccn5)CC4)c[nH]c23)no1 [Example 189],> 6.00,–
C[C@@H]1CN(C(=O)c2ccccn2)CCN1C(=O)C(=O)c1c[nH]c2c(-c3noc(N)n3)ccc(F)c12 [Example 190],> 6.00,–
O=C(C(=O)N1CCN(C(=O)c2ccccn2)CC1)c1c[nH]c2c(-c3ncon3)ccc(F)c12 [Example 191],> 6.00,–
C[C@@H]1CN(C(=O)c2ccccn2)CCN1C(=O)C(=O)c1c[nH]c2c(-c3ncon3)ccc(F)c12 [Example 192],> 6.00,–
O=C(C(=O)N1CCN(C(=O)c2ccccc2)CC1)c1c[nH]c2c(-c3nnc(C(Cl)(Cl)Cl)o3)ccc(F)c12 [Example 193],> 6.00,–
O=C(C(=O)N1CCN(C(=O)c2ccccc2)CC1)c1c[nH]c2c(-c3n[nH]c(CCl)n3)ccc(F)c12 [Example 194],> 6.00,–
"C[C@@H]1CN(C(=O)c2ccccc2)CCN1C(=O)C(=O)C1CNc2c(C(=O)O)cccc21 (stereo partly drawn) [Example 215, 1-benzoyl-3-(R)-methyl-4-[(7-carboxyindolin-3-yl)-2-oxoacetyl]piperazine]",> 6.00,–
COC(=O)/C=C/c1ccc(F)c2c(C(=O)C(=O)N3CCN(C(=O)c4ccccc4)CC3)c[nH]c12 [Example 217],> 6.00,–
